From patent US7524853B2 (Solvay Pharmaceuticals B.V., priority 2003, dated 2009) come the findings set out here.

What all share (format): cell-based
In assay [1] the target is T1, 17β-hydroxysteroid dehydrogenase type 1 (17β-HSD type 1) (Homo sapiens, UniProt P14061).
T1 construct: expressed in transfected cells; host or cells: MCF-7
T1 sequence (P14061 1-328): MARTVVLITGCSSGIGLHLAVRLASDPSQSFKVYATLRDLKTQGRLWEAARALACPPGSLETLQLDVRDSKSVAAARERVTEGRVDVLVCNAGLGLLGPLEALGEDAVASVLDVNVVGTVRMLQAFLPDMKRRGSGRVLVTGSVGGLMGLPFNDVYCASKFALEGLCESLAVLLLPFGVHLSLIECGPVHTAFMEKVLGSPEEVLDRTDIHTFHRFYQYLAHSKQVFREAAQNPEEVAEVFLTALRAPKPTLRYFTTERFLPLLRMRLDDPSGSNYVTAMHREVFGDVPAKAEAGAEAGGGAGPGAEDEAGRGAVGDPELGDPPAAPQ
Description: Inhibition of 17β-HSD type 1 in MCF-7 cells stably expressing the isoenzyme (tritium labeled estrone conversion, HPLC). The following applies: MCF7, MCF-7 cells expressing 17β-HSD type 1, 2 nM tritium labeled estrone; for inhibition at 1 µM: 1 μM test compound, read-out: % Inhibition HSD1 1 μM; for inhibition at 10 µM: 10 μM test compound, read-out: % Inhibition HSD1 10 μM. The essentials: (§1)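 Each isoenzyme was stably expressed in its own MCF-7 line, and cells were incubated in growth medium with test compound and 2 nM tritiated substrate: estrone (type 1), estradiol (type 2), androstenedione (type 3). Medium was sampled after a fixed time, TCA-stopped, and analysed by HPLC-flow scintillation; inhibition versus compound-free control, two compound concentrations.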

Assay [2] addresses T2, 17β-hydroxysteroid dehydrogenase type 2 (17β-HSD type 2) (Homo sapiens, UniProt P37059).
T2 construct: expressed in transfected cells; host or cells: MCF-7
T2 sequence (P37059 1-387): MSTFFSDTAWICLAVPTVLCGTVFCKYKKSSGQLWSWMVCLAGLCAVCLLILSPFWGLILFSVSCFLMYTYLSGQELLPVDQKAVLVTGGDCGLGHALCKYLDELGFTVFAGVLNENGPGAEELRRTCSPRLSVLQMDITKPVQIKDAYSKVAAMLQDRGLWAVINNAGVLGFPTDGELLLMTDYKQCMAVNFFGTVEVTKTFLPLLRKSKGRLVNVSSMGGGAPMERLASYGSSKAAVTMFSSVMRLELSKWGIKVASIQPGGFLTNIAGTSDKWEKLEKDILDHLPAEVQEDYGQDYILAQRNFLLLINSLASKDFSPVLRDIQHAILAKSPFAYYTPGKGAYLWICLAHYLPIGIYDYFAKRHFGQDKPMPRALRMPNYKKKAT
Description: Inhibition of 17β-HSD type 2 in MCF-7 cells stably expressing the isoenzyme (tritium labeled estradiol conversion, HPLC). The following applies: MCF7, MCF-7 cells expressing 17β-HSD type 2, 2 nM tritium labeled estradiol; for inhibition at 1 µM: 1 μM test compound, read-out: % Inhibition HSD2 1 μM; for inhibition at 10 µM: 10 μM test compound, read-out: % Inhibition HSD2 10 μM. The essentials:
as §1

For assay [3], the target named is T3, 17β-hydroxysteroid dehydrogenase type 3 (17β-HSD type 3) (Homo sapiens, UniProt P37058).
T3 construct: expressed in transfected cells; host or cells: MCF-7
T3 sequence (P37058 1-310): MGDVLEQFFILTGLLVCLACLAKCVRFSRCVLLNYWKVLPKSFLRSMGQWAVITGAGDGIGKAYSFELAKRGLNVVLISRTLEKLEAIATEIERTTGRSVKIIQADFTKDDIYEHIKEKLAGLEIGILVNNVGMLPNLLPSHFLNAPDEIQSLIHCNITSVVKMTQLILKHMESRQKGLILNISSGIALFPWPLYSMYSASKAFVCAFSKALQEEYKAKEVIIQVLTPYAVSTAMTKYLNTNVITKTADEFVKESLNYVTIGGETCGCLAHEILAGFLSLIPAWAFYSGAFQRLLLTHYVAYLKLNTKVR
Description: Inhibition of 17β-HSD type 3 in MCF-7 cells stably expressing the isoenzyme (tritium labeled androstenedione conversion, HPLC). To be noted: MCF7, MCF-7 cells expressing 17β-HSD type 3, 2 nM tritium labeled androstenedione; for inhibition at 1 µM: 1 μM test compound, read-out: % Inhibition HSD3 1 μM; for inhibition at 10 µM: 10 μM test compound, read-out: % Inhibition HSD3 10 μM. The essentials:
as §1

The inhibition is the share of the control response that was lost under treatment. Turning to `CCCCn1c(-c2cccs2)nc2sc3c(c2c1=O)CCCC3=O` [No. 134, 3-Butyl-2-thiophen-2-yl-6,7-dihydro-3H,5H-benzo[4,5]thieno[2,3-d]pyrimidine-4,8-dione], the values for the inhibition at 1 µM in assay [1], in assay [2] and in assay [3] were 16%, 9.9% and 17.2%, respectively. In addition, the inhibition at 10 µM in assay [1] is 7.9%; in assay [2] it was 11.6%; in assay [3], 21.6%.
For `COc1cc(-c2nc3sc4c(c3c(=O)n2CC(C)C)C(Br)CCC4=O)cc(OC)c1OC` (stereo not drawn) [No. 135, 5-Bromo-3-isobutyl-2-(3,4,5-trimethoxyphenyl)-6,7-dihydro-3H,5H-benzo[4,5]thieno[2,3-d]pyrimidine-4,8-dione], the inhibition at 1 µM stood at 54% in assay [1], 19.1% in assay [2] and 21.8% in assay [3]. Further, the figures for the inhibition at 10 µM in assay [1], in assay [2] and in assay [3] were 96.6%, 34.6% and 93.1%, respectively.
Consider `COc1cc(-c2nc3sc4c(OC)cccc4c3c(=O)n2CC(C)C)cc(OC)c1OC` [No. 136, 3-Isobutyl-8-methoxy-2-(3,4,5-trimethoxyphenyl)-3H-benzo[4,5]thieno[2,3-d]pyrimidin-4-one], for which the inhibition at 1 µM in assay [1] came to 3.6%; in assay [2], 23.2%; in assay [3] it was 3.5%. In addition, the inhibition at 10 µM in assay [1] stood at 8.5%; in assay [2] it was 8.8%; in assay [3] it was 11%.
For the molecule `COc1cc(-c2nc3sc4c(c3c(=O)n2Cc2ccccc2)C(Br)CCC4=O)cc(OC)c1OC` (stereo not drawn) [No. 137, 3-Benzyl-5-bromo-2-(3,4,5-trimethoxyphenyl)-6,7-dihydro-3H,5H-benzo[4,5]thieno[2,3-d]pyrimidine-4,8-dione], the results for the inhibition at 1 µM in assay [1], in assay [2] and in assay [3] were 35%, 28.1% and 19.3%, respectively. Also, the inhibition at 10 µM was determined as 76% in assay [1], 32.9% in assay [2] and 49.8% in assay [3].
For `COc1cc(-c2nc3sc4c(OC)cccc4c3c(=O)n2Cc2ccccc2)cc(OC)c1OC` [No. 138, 3-Benzyl-8-methoxy-2-(3,4,5-trimethoxyphenyl)-3H-benzo[4,5]thieno[2,3-d]pyrimidin-4-one], the results for the inhibition at 1 µM in assay [1], in assay [2] and in assay [3] were 20.6%, 25.7% and 6.8%, respectively. Besides, the inhibition at 10 µM turned out to be 21.5% in assay [1], 24.8% in assay [2] and 23% in assay [3].
In the case of `COc1cc(-c2nc3sc4c(O)cccc4c3c(=O)n2CC2CCCO2)c(Cl)c(OC)c1OC` (stereo not drawn) [No. 140, 2-(2-Chloro-3,4,5-trimethoxyphenyl)-8-hydroxy-3-(tetrahydrofuran-2-ylmethyl)-3H-benzo[4,5]thieno[2,3-d]pyrimidin-4-one], the inhibition at 1 µM was 39.5% in assay [1], 10.3% in assay [2] and 8.8% in assay [3]. Also, the inhibition at 10 µM in assay [1] was found to be 81%; in assay [2], 36.8%; in assay [3] it was 63.5%.
With `CCC(C)Cn1c(-c2cc(OC)c(OC)c(OC)c2Cl)nc2sc3c(c2c1=O)CCC(Cl)C3=O` (stereo not drawn) [No. 141, 7-Chloro-2-(2-chloro-3,4,5-trimethoxyphenyl)-3-(2-methylbutyl)-6,7-dihydro-3H,5H-benzo[4,5]thieno[2,3-d]pyrimidine-4,8-dione], the inhibition at 1 µM was 25% in assay [1], 3% in assay [2] and 2.7% in assay [3]. Further, the inhibition at 10 µM in assay [1] is 58.9%; in assay [2], 1.1%; in assay [3], 22.7%.
For the molecule `CCC(C)Cn1c(-c2cc(OC)c(OC)c(OC)c2Cl)nc2sc3c(c2c1=O)CCC(Cl)(Cl)C3=O` (stereo not drawn) [No. 142, 7,7-Dichloro-2-(2-chloro-3,4,5-trimethoxyphenyl)-3-(2-methylbutyl)-6,7-dihydro-3H,5H-benzo[4,5]thieno[2,3-d]pyrimidine-4,8-dione], the inhibition at 1 µM in assay [1] was found to be 32.8%; in assay [2], 6.2%; in assay [3], 8%. The inhibition at 10 µM in assay [1] is 52.7%; in assay [2] it was 10.5%; in assay [3] it was 24.1%.
For the molecule `CCC(C)Cn1c(-c2cc(OC)c(OC)c(OC)c2Cl)nc2sc3c(O)cccc3c2c1=O` (stereo not drawn) [No. 143, 2-(2-Chloro-3,4,5-trimethoxyphenyl)-8-hydroxy-3-(2-methylbutyl)-3H-benzo[4,5]thieno[2,3-d]pyrimidin-4-one], the results for the inhibition at 1 µM in assay [1], in assay [2] and in assay [3] were 40.1%, 4.5% and 12.5%, respectively. Also, the inhibition at 10 µM in assay [1] is 74.2%; in assay [2], 17.7%; in assay [3] it was 52.1%.
On to `COc1cc(-c2nc3sc4c(c3c(=O)n2Cc2cccnc2)CCCC4)cc(OC)c1OC` [No. 144], for which the inhibition at 1 µM turned out to be 23.5% in assay [1], 13.6% in assay [2] and 12.7% in assay [3]. For the same molecule, the figures for the inhibition at 10 µM in assay [1], in assay [2] and in assay [3] were 33.7%, 31.1% and 19.3%, respectively.
`COc1cc(-c2nc3sc4c(c3c(=O)n2Cc2ccccc2)CCCC4O)cc(OC)c1OC` (stereo not drawn) [No. 145, 3-Benzyl-8-hydroxy-2-(3,4,5-trimethoxyphenyl)-5,6,7,8-tetrahydro-3H-benzo[4,5]thieno[2,3-d]pyrimidin-4-one]: the inhibition at 1 µM in assay [1] is 23.6%; in assay [2], 25.9%; in assay [3], 19.2%. Further, the inhibition at 10 µM in assay [1] was determined as 21.2%; in assay [2], 25.7%; in assay [3], 21.6%.
In the case of `COc1ccc(-c2nc3sc4c(c3c(=O)n2Cc2ccccc2)CCC(Br)C4=O)cc1` (stereo not drawn) [No. 146, 3-Benzyl-7-bromo-2-p-methoxyphenyl-6,7-dihydro-3H,5H-benzo[4,5]thieno[2,3-d]pyrimidine-4,8-dione], the inhibition at 1 µM worked out at 7.3% in assay [1], 14.3% in assay [2] and 14.7% in assay [3]. Further, the inhibition at 10 µM in assay [1] was 50.9%; in assay [2], 5.1%; in assay [3], 37.9%.
As for `COc1ccc(-c2nc3sc4c(c3c(=O)n2Cc2ccccc2)CCC(Br)(Br)C4=O)cc1` [No. 147, 3-Benzyl-7,7-dibromo-2-p-methoxyphenyl-6,7-dihydro-3H,5H-benzo[4,5]thieno[2,3-d]pyrimidine-4,8-dione], the inhibition at 1 µM in assay [1] came to 11.4%; in assay [2], 0.1%; in assay [3] it was 10.3%. Moreover, the inhibition at 10 µM in assay [1] came out at 12.5%; in assay [2], 17.2%; in assay [3] it was 9.1%.
For `COCCn1c(-c2cccs2)nc2sc3c(O)c(Br)ccc3c2c1=O` [No. 148, 7-Bromo-8-hydroxy-3-(2-methoxyethyl)-2-thiophen-2-yl-3H-benzo[4,5]thieno[2,3-d]pyrimidin-4-one], the results for the inhibition at 1 µM in assay [1], in assay [2] and in assay [3] were 27%, 29.1% and 53.7%, respectively. Moreover, the values for the inhibition at 10 µM in assay [1], in assay [2] and in assay [3] were 53.2%, 42% and 97.9%, respectively.
In the case of `O=c1c2c(nc(-c3cccs3)n1CCO)sc1c(O)c(Br)ccc12` [No. 149, 7-Bromo-8-hydroxy-3-(2-hydroxyethyl)-2-thiophen-2-yl-3H-benzo[4,5]thieno[2,3-d]pyrimidin-4-one], the inhibition at 1 µM in assay [1] is 17.8%; in assay [2], 34.6%; in assay [3] it was 31%. Besides, the inhibition at 10 µM in assay [1] was determined as 18.3%; in assay [2], 29.9%; in assay [3], 59.8%.
